In ChEMBL document CHEMBL1255178, “4-methylpteridinones as orally active and selective PI3K/mTOR dual inhibitors” (Bioorg Med Chem Lett, 2010):

What was measured:
[1] = biological target: Serine/threonine-protein kinase mTOR (Homo sapiens, UniProt P42345)
[2] = Antitumor activity against human U87 cells xenografted in mouse at 20 mg/kg, po after 10 days; type: functional, U-87MG ATCC
[3] = Antitumor activity against human U87 cells xenografted in mouse at 3 mg/kg, po after 10 days; type: functional, U-87MG ATCC
[4] = Antitumor activity against human U87 cells xenografted in mouse at 10 mg/kg, po after 10 days; type: functional, U-87MG ATCC

SMILES: COc1ccc(-c2nc3c(C)nc(N)nc3n([C@H]3CC[C@H](O)CC3)c2=O)cn1
- Ki [1]: 6.8 nM
- Activity [2]: 75%
- Activity [3]: 11%
- Activity [4]: 58%

SMILES: Cc1ccc(-c2nc3c(C)nc(N)nc3n(C3CCOCC3)c2=O)cn1
- Ki [1]: 5 nM

SMILES: Cc1ccc(-c2nc3c(C)nc(N)nc3n([C@H]3CC[C@H](O)CC3)c2=O)cn1
- Ki [1]: 0.85 nM

SMILES: COc1ccc(-c2cc3c(C)nc(N)nc3n(C(C)C)c2=O)cn1
- Ki [1]: 5 nM

SMILES: COc1ccc(-c2cc3c(OC)nc(N)nc3n(C(C)C)c2=O)cn1
- Ki [1]: > 4000 nM

SMILES: Cc1nc(N)nc2c1nc(-c1ccn[nH]1)c(=O)n2C(C)C
- Ki [1]: 6 nM

SMILES: Cc1nc(N)nc2c1nc(-c1cnn[nH]1)c(=O)n2C(C)C
- Ki [1]: 113 nM

SMILES: COc1ncc(-c2nc3c(C)nc(N)nc3n(C(C)C)c2=O)cn1
- Ki [1]: 18 nM

SMILES: Cc1ccc(-c2nc3c(C)nc(N)nc3n([C@H]3CC[C@H](OCCO)CC3)c2=O)cn1
- Ki [1]: 5.11 nM

SMILES: Cc1nc(N)nc2c1nc(-c1cc[nH]n1)c(=O)n2C1CCOCC1
- Ki [1]: 0.8 nM
